Results as given in paper PMC6911642 (Cancer research, 2019).

Assays:
PERK = biological target: T1, PERK (Rattus norvegicus, UniProt Q9Z1Z1); test: Inhibition of PERK autophosphorylation; assay type: cell-based
T1 sequence (Q9Z1Z1 28-1108): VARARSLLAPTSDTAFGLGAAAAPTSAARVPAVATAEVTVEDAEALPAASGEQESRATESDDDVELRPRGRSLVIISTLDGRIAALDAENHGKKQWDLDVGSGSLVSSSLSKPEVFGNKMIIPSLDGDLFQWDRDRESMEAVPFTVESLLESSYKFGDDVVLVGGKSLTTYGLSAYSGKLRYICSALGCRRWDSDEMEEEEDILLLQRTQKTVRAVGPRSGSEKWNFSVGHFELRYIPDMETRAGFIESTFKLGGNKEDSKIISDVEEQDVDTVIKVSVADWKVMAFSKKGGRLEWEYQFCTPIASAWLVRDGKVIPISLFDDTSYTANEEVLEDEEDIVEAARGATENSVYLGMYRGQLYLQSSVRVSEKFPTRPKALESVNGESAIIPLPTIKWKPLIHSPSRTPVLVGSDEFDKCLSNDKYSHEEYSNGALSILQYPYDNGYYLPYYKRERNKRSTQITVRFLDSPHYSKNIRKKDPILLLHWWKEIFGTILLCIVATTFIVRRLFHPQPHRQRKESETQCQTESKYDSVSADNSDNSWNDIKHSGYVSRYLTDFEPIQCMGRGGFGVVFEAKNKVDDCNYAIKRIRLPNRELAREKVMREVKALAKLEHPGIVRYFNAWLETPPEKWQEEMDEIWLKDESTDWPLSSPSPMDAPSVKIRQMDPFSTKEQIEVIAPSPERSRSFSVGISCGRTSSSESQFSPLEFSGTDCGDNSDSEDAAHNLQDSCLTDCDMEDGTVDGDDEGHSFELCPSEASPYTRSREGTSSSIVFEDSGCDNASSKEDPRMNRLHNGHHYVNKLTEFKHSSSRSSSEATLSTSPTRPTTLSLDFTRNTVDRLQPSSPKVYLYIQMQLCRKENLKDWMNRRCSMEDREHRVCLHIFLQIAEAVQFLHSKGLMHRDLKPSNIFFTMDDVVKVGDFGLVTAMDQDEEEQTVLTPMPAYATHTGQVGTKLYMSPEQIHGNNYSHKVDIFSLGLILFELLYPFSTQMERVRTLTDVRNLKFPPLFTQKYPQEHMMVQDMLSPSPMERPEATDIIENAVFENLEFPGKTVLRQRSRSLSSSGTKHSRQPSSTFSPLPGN

IRE1α = IRE1α (Rattus norvegicus, UniProt A0A4Y1YQ52); test: Inhibition of IRE1α RNase output; assay type: cell-based
Sequence of IRE1α (A0A4Y1YQ52 21-977): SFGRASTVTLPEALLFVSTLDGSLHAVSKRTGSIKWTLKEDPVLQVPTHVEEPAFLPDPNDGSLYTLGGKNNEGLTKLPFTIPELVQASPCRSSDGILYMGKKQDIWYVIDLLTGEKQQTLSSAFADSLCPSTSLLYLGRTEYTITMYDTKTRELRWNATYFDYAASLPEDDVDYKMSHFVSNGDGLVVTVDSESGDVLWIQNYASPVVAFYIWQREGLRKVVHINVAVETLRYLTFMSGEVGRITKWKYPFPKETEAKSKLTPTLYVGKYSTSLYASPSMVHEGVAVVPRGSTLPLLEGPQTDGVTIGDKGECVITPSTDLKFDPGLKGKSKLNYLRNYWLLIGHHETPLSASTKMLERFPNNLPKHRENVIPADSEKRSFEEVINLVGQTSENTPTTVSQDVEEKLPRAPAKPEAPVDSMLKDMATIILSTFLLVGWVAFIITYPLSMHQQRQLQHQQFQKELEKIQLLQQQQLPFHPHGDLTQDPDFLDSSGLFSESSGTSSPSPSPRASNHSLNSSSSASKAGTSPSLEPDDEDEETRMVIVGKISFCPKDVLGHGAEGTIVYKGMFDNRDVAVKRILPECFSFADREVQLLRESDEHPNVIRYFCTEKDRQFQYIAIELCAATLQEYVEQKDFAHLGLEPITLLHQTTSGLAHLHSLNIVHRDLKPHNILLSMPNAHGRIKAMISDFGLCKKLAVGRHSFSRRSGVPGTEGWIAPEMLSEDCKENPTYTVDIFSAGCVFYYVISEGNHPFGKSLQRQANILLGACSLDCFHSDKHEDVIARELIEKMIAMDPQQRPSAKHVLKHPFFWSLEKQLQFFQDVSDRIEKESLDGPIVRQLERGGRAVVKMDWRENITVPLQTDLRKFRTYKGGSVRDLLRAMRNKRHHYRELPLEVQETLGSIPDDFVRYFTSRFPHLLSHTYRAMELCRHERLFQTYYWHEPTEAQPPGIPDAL

`Cc1cccc(CC(=O)N2CCc3c2ccc(-c2cn(C)c4ncnc(N)c24)c3F)n1` [GSK2656157] gave an IC50 (PERK) of about 125 nM.
`Cc1ccc2c(NS(=O)(=O)c3ccccc3Cl)cccc2c1Oc1ncccc1-c1ccnc(N[C@H]2CCCNC2)n1` [KIRA8] showed an IC50 (IRE1α) of about 125 nM.
